# How the values were obtained:
# [1] = Displacement of [3H]BTX-B from Na+ channel site 2 after 60 mins by liquid scintillation spectroscopy
# BXPC-3 = experiment: Growth inhibition of human BxPC3 cells after 48 hrs by SRB assay; assay type: functional; conditions: BXPC-3, 48 h
# MCF7 = experiment: Growth inhibition of human MCF7 cells after 48 hrs by SRB assay; assay type: functional; conditions: MCF7, 48 h; for CC50: read-out: LC50 (the source's name)
# SF-268 = experiment: Growth inhibition of human SF268 cells after 48 hrs by SRB assay; assay type: functional; conditions: SF-268, 48 h; for CC50: read-out: LC50 (the source's name)
# NCI-H460 = experiment: Growth inhibition of human NCI-H460 cells after 48 hrs by SRB assay; assay type: functional; conditions: NCI-H460, 48 h
# [2] = Selectivity ratio of IC50 for human sigma-1 receptor to IC50 for rat sigma-2 receptor
# HUVEC = experiment: (§1) Growth inhibition of HUVEC cells after 48 hrs by SRB assay; assay type: cell-based; conditions: human, huvec, 48 h
# [3] = as §1; assay type: cell-based; conditions: human, HUVEC cells
# [4] = target: Sigma non-opioid intracellular receptor 1 (Homo sapiens, UniProt Q99720); experiment: Displacement of [3H](+)pentazocine from sigma-1 receptor expressed in human Jurkat cell membranes after 2 hrs by liquid scintillation spectroscopy
# Sequence of Sigma non-opioid intracellular receptor 1 (Q99720 whole entry): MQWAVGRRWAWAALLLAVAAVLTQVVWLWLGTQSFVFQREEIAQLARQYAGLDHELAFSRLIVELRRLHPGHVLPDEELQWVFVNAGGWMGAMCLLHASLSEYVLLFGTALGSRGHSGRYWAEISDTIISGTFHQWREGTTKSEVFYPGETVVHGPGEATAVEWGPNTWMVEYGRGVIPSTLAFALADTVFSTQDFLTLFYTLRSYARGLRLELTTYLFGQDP
# HCT-116 = experiment: Growth inhibition of human HCT116 cells after 48 hrs by SRB assay; assay type: functional; conditions: HCT-116, 48 h; for CC50: read-out: LC50 (the source's name)
# MIA PaCa-2 = experiment: Growth inhibition of human MIAPaCa2 cells after 48 hrs by SRB assay; assay type: functional; conditions: MIA PaCa-2, 48 h
# [5] = Displacement of [3H](+)1-DTG from sigma-2 receptor expressed in rat cerebral cortex membranes after 2 hrs by liquid scintillation spectroscopy; assay type: cell membranes, Membrane
# SK-HEP1 = experiment: Growth inhibition of human SKHEP1 cells after 48 hrs by SRB assay; assay type: functional; conditions: SK-HEP1, 48 h; for CC50: read-out: LC50 (the source's name)
# OVCAR-5 = experiment: Growth inhibition of human OVCAR5 cells after 48 hrs by SRB assay; assay type: functional; conditions: OVCAR-5, 48 h; for CC50: read-out: LC50 (the source's name)
# IGROV-1 = experiment: Growth inhibition of human IGROV1 cells after 48 hrs by SRB assay; assay type: functional; conditions: IGROV-1, 48 h
# LOX IMVI = experiment: Growth inhibition of human LOXIMVI cells after 48 hrs by SRB assay; assay type: functional
# DMS-114 = experiment: Growth inhibition of human DMS114 cells after 48 hrs by SRB assay; assay type: functional; conditions: DMS-114, 48 h
# [6] = Growth inhibition of human MSC cells after 48 hrs by SRB assay; assay type: cell-based
# NHDF = experiment: (§2) Growth inhibition of NHDF cells after 48 hrs by SRB assay; assay type: cell-based; conditions: human, nhdf, 48 h
# [7] = as §2; assay type: cell-based; conditions: human, NHDF cells
# HCT-15 = experiment: Growth inhibition of human HCT15 cells after 48 hrs by SRB assay; assay type: functional; conditions: HCT-15, 48 h
# HL-60(TB) = experiment: Growth inhibition of human HL-60(TB) cells after 48 hrs by SRB assay; assay type: functional; conditions: HL-60, 48 h
# [8] = read-out: LC50 (the source's name)
smiles,measurement,setting,value
c1ccc(CN2CCN(c3ccc(C(c4ccccc4)C45CC6CC(CC(C6)C4)C5)cc3)CC2)cc1 (configuration not stated),IC50,[1],1.6 µM
same,GI50,BXPC-3,7.51 µM
same,LC50,BXPC-3,100 µM
same,TGI,BXPC-3,52.1 µM
same,GI50,MCF7,22.3 µM
same,TGI,MCF7,99.4 µM
same,CC50,MCF7,100 µM
same,CC50,SF-268,100 µM
same,GI50,NCI-H460,54.7 µM
same,LC50 (concentration killing 50% of cells),NCI-H460,100 µM
same,TGI,NCI-H460,100 µM
same,Ratio IC50,[2],1.9
same,LC50,HUVEC,100 µM
same,TGI,HUVEC,100 µM
same,GI50 at 48 h,[3],76.8 µM
same,IC50,[4],0.0633 µM
same,GI50,HCT-116,12 µM
same,TGI,HCT-116,100 µM
same,CC50,HCT-116,100 µM
same,GI50,MIA PaCa-2,14.9 µM
same,TGI,MIA PaCa-2,100 µM
same,CC50,MIA PaCa-2; [8],100 µM
same,IC50,[5],0.119 µM
same,GI50,SK-HEP1,23.5 µM
same,TGI,SK-HEP1,100 µM
same,CC50,SK-HEP1,100 µM
same,GI50,OVCAR-5,84.3 µM
same,TGI,OVCAR-5,100 µM
same,CC50,OVCAR-5,100 µM
c1ccc(C(c2ccc(N3CCNCC3)cc2)C23CC4CC(CC(C4)C2)C3)cc1 (configuration not stated),IC50,[1],1.2 µM
same,GI50,IGROV-1,3.32 µM
same,TGI,IGROV-1,6.1 µM
same,CC50,IGROV-1; [8],8.89 µM
same,GI50,BXPC-3,3.61 µM
same,LC50,BXPC-3,9.05 µM
same,TGI,BXPC-3,6.33 µM
same,GI50,MCF7,2.49 µM
same,TGI,MCF7,5.59 µM
same,CC50,MCF7,8.68 µM
same,GI50,SF-268,3.45 µM
same,TGI,SF-268,6.11 µM
same,CC50,SF-268,8.76 µM
same,GI50,NCI-H460,3.74 µM
same,LC50 (concentration killing 50% of cells),NCI-H460,9.7 µM
same,TGI,NCI-H460,6.72 µM
same,GI50,LOX IMVI,2.79 µM
same,LC50 (concentration killing 50% of cells),LOX IMVI,8.11 µM
same,TGI,LOX IMVI,5.45 µM
same,GI50,DMS-114,3.97 µM
same,TGI,DMS-114,6.51 µM
same,CC50,DMS-114; [8],9.05 µM
same,LC50,HUVEC,100 µM
same,TGI,HUVEC,7.62 µM
same,GI50 at 48 h,[3],4.8 µM
same,IC50,[4],0.0124 µM
same,GI50,HCT-116,3.67 µM
same,TGI,HCT-116,6.54 µM
same,CC50,HCT-116,9.41 µM
same,GI50 at 48 h,[6]; MSC cells,4.87 µM
same,LC50,"[6]; msc, 48 h",9.33 µM
same,TGI,"[6]; msc, 48 h",7.1 µM
same,IC50,[5],> 1 µM
same,GI50,SK-HEP1,3.91 µM
same,TGI,SK-HEP1,6.48 µM
same,CC50,SK-HEP1,9.04 µM
same,LC50,NHDF,9.49 µM
same,TGI,NHDF,6.23 µM
same,GI50 at 48 h,[7],2.97 µM
same,GI50,HCT-15,3.4 µM
same,LC50,HCT-15,8.9 µM
same,TGI,HCT-15,6.15 µM
same,GI50,HL-60(TB),5.97 µM
same,LC50,HL-60(TB),100 µM
same,TGI,HL-60(TB),9.92 µM
same,GI50,OVCAR-5,4.27 µM
same,TGI,OVCAR-5,7.33 µM
same,CC50,OVCAR-5,10.4 µM

# — ChEMBL document CHEMBL2021794, “Synthesis, σ₁, σ₂-receptors binding affinity and antiproliferative action of new C1-substituted adamantanes” (Bioorg Med Chem, 2012)
